Results published in patent EP0942896B1, “SUBSTITUTED PHENOLS AND THIOPHENOLS USEFUL AS ANTIOXIDANT AGENTS” (Aventis Pharmaceuticals Inc., priority 1996, dated 1998).
Read-outs that look alike come from different tables or passages of the source.

Tests used:
[1] = system: Choleterol-Fed Female New Zealand White Rabbits; assay: Hypocholesterolemic effects in cholesterol-fed rabbits: serum cholesterol, lipoprotein cholesterol, triglycerides; assay type: in vivo; settings: % of control, diet 0.4%, 7 days, 0.2% cholesterol chow, N = 5
Description: (§1) Perform five independent experiments in the following manner. Each study has a control group and 1-5 groups treated with MDL compound (N = 5 per group). Feed Female New Zealand White rabbits (Hazelton, ∼ 2.0-2.3 kg) 0.2% cholesterol enriched rabbit chow (Purina #5322) with or without 0.4% MDL compound. Solubilize the MDL compounds in 100% ethanol. Spray the chow with the MDL mixtures and allow to dry overnight in a chemical fume hood. Spray control chow with ethanol. Feed rabbits 100 grams food per day for 7 days (0.6% MDL 103,491 were fed for 14 days); make available water ad libitum. On day 7, bleed (~ 2 mL) rabbits (fasted overnight) from a marginal ear vein. Euthanize rabbits by carbon dioxide overdose. Record the total body and liver weights in grams. Record food as grams • day^-1 · rabbit^-1. Use aliquots of fresh serum for clinical chemistries, lipoprotein cholesterol determination, thiobarbituric acid reactive substances (TBARS) and compound and metabolite concentrations in serum. Freeze livers (∼ 5 gram aliquots) at -20°C for compound and metabolite concentration determination at a later time.
Allow blood to clot at room temperature for 30 minutes. Obtain serum after centrifugation for 10 min at 5°C at 3000 rpm in a Beckman GPKR centrifuge with a GH rotor. Analyze by a COBAS MIRA autoanalyzer (Roche Diagnostics) using Roche diagnostic reagents for total cholesterol (CHOL, kit # 44334) and triglyceride (TG, kit # 44120). Calculate cholesterol and triglycerides as mg/dL.
Separate lipoprotein fractions (very low density lipoprotein, VLDL, low density lipoprotein, LDL and high density lipoprotein, HDL) on a Sepharose 6HR column (1 x 30 cm, Pharmacia) attached to a Waters Powerline HPLC system. Inject serum (50 µL) onto the column and elute with phosphate buffered saline, pH 7.4, at a flow rate of 0.5 mL/min. Add cholesterol reagent (Roche Diagnostics, kit # 44334, diluted with 20 mL water and then with 20 mL of 0.9% saline) at 0.2 mL/min to the post column eluant and incubate in a knitted PFTE Kratos reaction coil (Applied Biosystems) at 37°C for 5 min. Measure absorbance at 500 nm. The lipoprotein subfractions are quantitated as follows: (total serum cholesterol) x (% area under the curve for each subfraction) [formula]

[2] = Animal parameters (food, body weight, liver weight/body weight) in cholesterol-fed rabbits; assay type: in vivo, Female New Zealand White rabbits; settings: % of control, diet 0.4%, 7 days, 0.2% cholesterol chow, N = 5
Description: as §1

[3] = system: oxidation of serum lipids; assay: TBARS assay on serum of treated cholesterol-fed rabbits (CuSO4-initiated oxidation); assay type: in vivo, Female New Zealand White rabbits; settings: % of control, thiobarbituric acid reactive substances as nmole MDA, diet 0.4%, 7 days, N = 5
Description: as §1, with “Freeze livers (∼ 5 gram aliquots) at -20°C for compound and metabolite concentration determination at a later time.” left out
TBARS are a […] indication of the oxidation of lipids in a sample. […] Upon incubation with thiobarbituric acid, the absorbance of the aldehydes can be detected at 530-540 nm. […] Measure absorbances at 540 nm using a Biotek model EL311 microplate reader. The nmoles of MDA produced are calculated from a standard curve of 0 to 10 nmoles of MDA prepared from malonaldehyde bis(dimethylacetal). […]

[4] = HPLC quantitation of compound and metabolite concentration in rabbit serum and liver; assay type: in vivo, Female New Zealand White rabbits; settings: female, New Zealand White, oral, 0.4 % in chow, diet 0.4%, 7 days, mean N = 5
Description: as §1
Determine serum and liver concentrations of parent compounds and the metabolites, bisphenol and diphenoquinone, by reverse phase HPLC using a Waters 990 Powerline system. […] Calculate compound concentrations from known quantities of authentic parent compounds after correction for recovery. […]

`CC(C)=CCC[C@H](C)CCOc1cc(C(C)(C)C)c(O)c(C(C)(C)C)c1` [MDL 103,294, Phenol, 2,6-bis(1,1-dimethylethyl)-4-[(3,7-dimethyl-6-octenyl)oxy]-, (S)-] showed an HDL ([1]; High Density lipoprotein cholesterol) of 192%, an LDL ([1]; Low Density lipoprotein cholesterol) of 82% and a chol tot. ([1]; total cholesterol in serum, fasted overnight) of 94%. The TRIG ([1]; triglycerides in serum) was 197%, the food ([2]; grams eaten per day per rabbit) was 103% and the lw/bw ([2]; liver weight / body weight) was 105%. For the same compound, the body wt. ([2]; weight in grams) was 100%, the TBARS [3] was 35% and the concentration at 7 day ([4]; parent compound concentration in rabbit liver, read-out: Liver Parent) was 77000 ng/g. The concentration at 7 day ([4]; parent compound concentration in rabbit serum, read-out: Serum Parent) was 19800 ng/mL.
